Results: patent publication US20240158810A1, “COMPOSITIONS AND METHODS FOR AMELIORATING ANTERODORSAL THALAMUS HYPEREXCITABILITY” (The Broad Institute, Inc., priority 2021, published 2024)

Experiments:
AD→RSC circuit = assay: AMPA/NMDA ratio of the AD→RSC circuit after CFC training in PTCHD1 KD mice; type: in vivo, mouse; conditions: PTCHD1 KD mice with hM4Di in AD, low dose of C21 (0.6 mg kg^-1 IP)
Source text: (§1) The inventors hypothesized that the increased excitability of AD neurons in KD mice may prevent synaptic strengthening during CFC training, which is necessary for efficient encoding. Specifically, in control mice the excitability of AD neurons would increase during training, which leads to strengthening of the AD→RSC circuit, but in KD mice due to the increased excitability of AD neurons before training there will not be the important training-induced increase in excitability and corresponding synaptic strengthening. By recording from AD neurons before and after CFC training in control and KD groups, the inventors obtained experimental evidence to support this idea (FIG. 14G). Without intending to be bound by theory, these findings support a correlation between neuronal hyperexcitability and impairments in long-term potentiation (Speca et al., 2014: Gruter et al., 2015). The inventors next developed a dose-dependent chemogenetic approach to normalize the excitability of AD neurons in KD mice (FIG. 6D).
(§2) Chemogenetic and optogenetic experiments. For chemogenetic (i.e., hM4Di or hM3Dq) neuronal activity manipulation experiments, we used the second-generation agonist known as compound 21 (C21). This agonist was purchased in a water-soluble dihydrochloride form (Hello Bio). […]

RSC cFos ensembles = assay: cFos activation in RSC during CFC training in PTCHD1 KD mice; type: in vivo, mouse; conditions: PTCHD1 KD mice with hM4Di in AD, low dose of C21 (0.6 mg kg^-1 IP)
[1] = tested on: AD neurons expressing inhibitory DREADDs hM4Di-mCherry; assay: C21-induced inhibition of hM4Di-expressing AD neuronal firing, ex vivo slice recording; type: cell-based, mouse; conditions: hM4Di-mCherry expressed in AD, 50 pA step current injection
PTCHD1 KD mice = assay: Contextual fear conditioning long-term memory recall test in PTCHD1 KD mice; type: in vivo, mouse; conditions: PTCHD1 KD mice with hM4Di in AD; low dose of C21 (0.6 mg kg^-1 IP) before CFC training
Source text: as §1
Chemogenetic and optogenetic experiments. For chemogenetic (i.e., hM4Di or hM3Dq) neuronal activity manipulation experiments, we used the second-generation agonist known as compound 21 (C21). […]
Contextual fear conditioning. […] Since optogenetic manipulations (i.e., optic fibers) interfered with automated motion detection, freezing behavior was manually quantified for all experiments.

[2] = tested on: AD neurons of PTCHD1 KD mice; assay: AD neuronal excitability rescue ex vivo in PTCHD1 KD mice (chemogenetic normalization); set-up: species or system mouse; conditions: PTCHD1 KD mice with hM4Di in AD; low dose of C21 (0.6 mg kg^-1 IP), 1 hr before slice preparation
Source text: as §1, §2

Cl.Cl.c1ccc2c(c1)N=C(N1CCNCC1)c1ccccc1N2 [C21]
training-induced strengthening of the AD→RSC circuit (AMPA/NMDA ratio) (AD→RSC circuit): rescued | training-induced CFOS ensemble size in RSC (RSC cFos ensembles): rescued | AD neuronal firing [1]: reversibly decreased AD neuronal firing | LTM recall (CFC) (PTCHD1 KD mice): rescued | excitability of AD neurons [2]: returned to physiological levels
